Source: patent publication US20240239755A1, “SUBSTITUTED PYRIDAZINONES, SALTS OR N-OXIDES THEREOF AND THEIR USE AS HERBICIDALLY ACTIVE SUBSTANCES” (Bayer Aktiengesellschaft, priority 2021, published 2024)

Key:
Format in all cases: in vivo
Veronica persica (VERPE) [1] = test: Herbicidal post-emergence action, 320 g/ha, VERPE; settings: visual grading after ca. 3 weeks
In short: (§1)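 Weeds grown in sandy loam were sprayed post-emergence at the single-leaf stage, 2–3 weeks after sowing. Compounds were formulated as WP or EC with 0.5% additive and applied at 320 g/ha in 600 L water/ha. After ~3 weeks in the greenhouse, damage was scored visually as % versus untreated controls (100% = dead).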

[2] = test system: Amaranthus retroflexus (AMARE); test: Herbicidal post-emergence action, 1280 g/ha, AMARE; settings: visual grading vs untreated controls
In short: (§2)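 Visual rating ~3 weeks after treatment: 0% equals untreated control, 100% means plants died. Treatment was a 1280 g/ha foliar spray (600 L water/ha, 0.5% additive, WP or EC formulation) applied to single-leaf-stage plants grown 2–3 weeks in sandy loam under controlled conditions.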

Stellaria media (STEME) [3] = test: Herbicidal post-emergence action, 1280 g/ha (Table B9); settings: visual assessment after ca. 3 weeks vs untreated controls
In short: (§3)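 Visual percent damage relative to untreated plants (100% dead, 0% no effect) was rated about 3 weeks after treatment in the greenhouse. WP or EC preparations with 0.5% additive were applied at 600 L water/ha onto single-leaf-stage plants grown 2–3 weeks in sandy loam pots.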

Kochia scoparia (KCHSC) [4] = test: Herbicidal post-emergence action, 320 g/ha, KCHSC; settings: visual grading after ca. 3 weeks
In short: as §1

[5] = test system: Abutilon theophrasti (ABUTH); test: Herbicidal post-emergence action, 320 g/ha, ABUTH; settings: visual grading after ca. 3 weeks
In short: as §1

[6] = test system: Abutilon theophrasti (ABUTH); test: Herbicidal post-emergence action, 1280 g/ha (Table B1); settings: visual assessment after ca. 3 weeks vs untreated controls
In short: as §3

[7] = test system: Amaranthus retroflexus (AMARE); test: Herbicidal post-emergence action, 320 g/ha, AMARE; settings: visual grading after ca. 3 weeks
In short: as §1

[8] = test system: Matricaria inodora (MATIN); test: Herbicidal post-emergence action, 320 g/ha, MATIN; settings: visual grading after ca. 3 weeks
In short: as §1

[9] = test system: Amaranthus retroflexus (AMARE); test: Herbicidal pre-emergence action, 1280 g/ha (Table A11); settings: visual grading after ca. 3 weeks vs untreated controls
In short: (§4)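 Compounds were formulated as WP or EC and sprayed onto the covering soil of freshly sown pots (sandy loam) in 600 L water/ha with 0.5% additive. Pots were kept in a greenhouse, and damage was scored visually after ca. 3 weeks as % effect versus untreated controls (100% = dead).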

Lolium rigidum (LOLRI) [10] = test: Herbicidal post-emergence action, 1280 g/ha (Table B5); settings: visual assessment after ca. 3 weeks vs untreated controls
In short: as §3

Kochia scoparia (KCHSC) [11] = test: Herbicidal post-emergence action, 1280 g/ha (Table B4); settings: visual assessment after ca. 3 weeks vs untreated controls
In short: as §3

[12] = test system: Matricaria inodora (MATIN); test: Herbicidal post-emergence action, 1280 g/ha (Table B6); settings: visual assessment after ca. 3 weeks vs untreated controls
In short: as §3

Stellaria media (STEME) [13] = test: Herbicidal post-emergence action, 320 g/ha, STEME; settings: visual grading after ca. 3 weeks
In short: as §1

Veronica persica (VERPE) [14] = test: Herbicidal post-emergence action, 1280 g/ha, VERPE; settings: visual grading vs untreated controls
In short: as §2

[15] = test system: Matricaria inodora (MATIN); test: Herbicidal pre-emergence action, 1280 g/ha (Table A6); settings: visual grading after ca. 3 weeks vs untreated controls
In short: as §4

Lolium rigidum (LOLRI) [16] = test: Herbicidal pre-emergence action, 1280 g/ha (Table A5); settings: visual grading after ca. 3 weeks vs untreated controls
In short: as §4

Poa annua (POAAN) [17] = test: Herbicidal pre-emergence action, 1280 g/ha (Table A7); settings: visual grading after ca. 3 weeks vs untreated controls
In short: as §4

[18] = test system: Echinochloa crus-galli (ECHCG); test: Herbicidal post-emergence action, 1280 g/ha (Table B3); settings: visual assessment after ca. 3 weeks vs untreated controls
In short: as §3

Poa annua (POAAN) [19] = test: Herbicidal post-emergence action, 1280 g/ha (Table B7); settings: visual assessment after ca. 3 weeks vs untreated controls
Source text: Seeds of mono- and dicotyledonous weed plants were sown in plastic pots (double sowings with one species of mono- and one species of dicotyledonous weed plants per pot), in sandy loam, covered with soil and grown under controlled growth conditions. 2 to 3 weeks after sowing, the test plants were sprayed in the single-leaf stage. The compounds according to the invention, formulated in the form of wettable powders (WP) or as emulsifiable concentrates (EC), were sprayed onto the green plant parts as an aqueous suspension or as an emulsion, with the addition of 0.5% of an additive, at an application rate of 600 litres of water per hectare (converted). The test plants were placed in the greenhouse for ca. 3 weeks under optimum growth conditions, and then the effect of the preparations was assessed visually in comparison with untreated controls (herbicidal effect in percent (%): 100% effect=plants have died, 0% effect=as control plants). Tables B1 to B11 below, show the effects of selected compounds of the general formula (I) according to Table 1 on various harmful plants using an application rate corresponding to 1280 g/ha obtained by the experimental procedure mentioned above.

Stellaria media (STEME) [20] = test: Herbicidal pre-emergence action, 1280 g/ha (Table A9); settings: visual grading after ca. 3 weeks vs untreated controls
In short: as §4

[21] = test system: Digitaria sanguinalis (DIGSA); test: Herbicidal pre-emergence action, 1280 g/ha (Table A3); settings: visual grading after ca. 3 weeks vs untreated controls
Source text: Seeds of mono- and dicotyledonous weed plants were sown in plastic pots (double sowings with one species of mono- and one species of dicotyledonous weed plants per pot), in sandy loam, and covered with soil. The compounds according to the invention, formulated in the form of wettable powders (WP) or as emulsifiable concentrates (EC), were applied to the surface of the covering soil as an aqueous suspension or as an emulsion, with the addition of 0.5% of an additive, at an application rate of 600 litres of water per hectare (converted). Following treatment, the pots were placed in a greenhouse and kept under optimum growth conditions for the test plants. The visual grading of the damage to the test plants was carried out after ca. 3 weeks in comparison to untreated controls (herbicidal effect in percent (%): 100% effect=plants have died, 0% effect=as control plants). Tables A1 to A11 below, show the effects of selected compounds of the general formula (I) according to Table 1 on various harmful plants and an application rate corresponding to 1280 g/ha obtained by the experimental procedure mentioned above.

Kochia scoparia (KCHSC) [22] = test: Herbicidal pre-emergence action, 1280 g/ha (Table A4); settings: visual grading after ca. 3 weeks vs untreated controls
In short: as §4

## CCOC(=O)Oc1c(C)nn(C)c(=O)c1Oc1ccccc1Cl [Example I-010]
Veronica persica (VERPE) [1]
  herbicidal effect VERPE: 90%
[2]
  herbicidal effect AMARE: 100%
Stellaria media (STEME) [3]
  herbicidal effect STEME: 100%
Kochia scoparia (KCHSC) [4]
  herbicidal effect KCHSC: 100%
[5]
  herbicidal effect ABUTH: 90%
[6]
  herbicidal effect ABUTH: 100%
[7]
  herbicidal effect AMARE: 100%
[8]
  herbicidal effect MATIN: 100%
[9]
  herbicidal effect AMARE: 90%
Lolium rigidum (LOLRI) [10]
  herbicidal effect LOLRI: 100%
Kochia scoparia (KCHSC) [11]
  herbicidal effect KCHSC: 100%
[12]
  herbicidal effect MATIN: 100%
Stellaria media (STEME) [13]
  herbicidal effect STEME: 100%
Veronica persica (VERPE) [14]
  herbicidal effect VERPE: 90%
[15]
  herbicidal effect MATIN: 100%
Lolium rigidum (LOLRI) [16]
  herbicidal effect LOLRI: 100%
Poa annua (POAAN) [17]
  herbicidal effect POAAN: 90%
[18]
  herbicidal effect ECHCG: 90%
Poa annua (POAAN) [19]
  herbicidal effect POAAN: 100%
Stellaria media (STEME) [20]
  herbicidal effect STEME: 90%

## Cc1nn(C)c(=O)c(Oc2cc(Cl)c(Cl)c(Cl)c2)c1O [Example I-077]
Stellaria media (STEME) [3]
  herbicidal effect STEME: 100%
[9]
  herbicidal effect AMARE: 100%
Stellaria media (STEME) [13]
  herbicidal effect STEME: 90%
[21]
  herbicidal effect DIGSA: 100%
[15]
  herbicidal effect MATIN: 100%
Poa annua (POAAN) [17]
  herbicidal effect POAAN: 100%
[18]
  herbicidal effect ECHCG: 90%
Kochia scoparia (KCHSC) [22]
  herbicidal effect KCHSC: 90%
